Test results taken from ChEMBL document CHEMBL4483862, “Open-source discovery of chemical leads for next-generation chemoprotective antimalarials” (2018).
pIC50: −log10 of the molar value.

Test system: Plasmodium berghei
Test: Luciferase/luciferin-expressing antifolate-resistant parasites were used to infect a culture of HepG2 cells that were pre-incubated with compounds. Infected hepatocytes emit light due to the luciferase reaction. Assay results are presented as the percent inhibition of light emission compared to control. […]
Assay type: functional
Settings: sporozoite; for IC90: read-out: LUCIFERASE INFECTION ASSAY - IC90

Structure (SMILES)	IC90 [µM]	further results
Cc1sc2ncnc(N3CCC(C(=O)N(CC(C)C)c4nc5ccccc5s4)CC3)c2c1C	> 10	pIC50 (PBLUC_HILL_SLOPE 1.15, PBLUC_R_SQUARED 0.711, read-out: LUCIFERASE INFECTION ASSAY - IC50): 5.39
O/N=C(\c1ccc(Cl)cc1)c1cc2ccccc2o1	> 12.1	pIC50 (PBLUC_HILL_SLOPE 1.16, PBLUC_R_SQUARED 0.26, read-out: LUCIFERASE INFECTION ASSAY - IC50): 5.20
Nc1ccc(-c2cn3c(-c4cccc(Cl)c4)cnc3cn2)cn1	> 10.3	pIC50 (PBLUC_HILL_SLOPE 1.1, PBLUC_R_SQUARED 0.459, read-out: LUCIFERASE INFECTION ASSAY - IC50): 5.25
OCc1ccc(-c2cn3c(-c4ccc5c(c4)OCO5)cnc3cn2)cc1	> 9.56	pIC50 (PBLUC_HILL_SLOPE 1.17, PBLUC_R_SQUARED 0.649, read-out: LUCIFERASE INFECTION ASSAY - IC50): 5.41
COc1ccccc1-c1nc(-c2ccc(CCCNC(C)=O)cc2)cs1	> 10	pIC50 (PBLUC_HILL_SLOPE 1.19, PBLUC_R_SQUARED 0.431, read-out: LUCIFERASE INFECTION ASSAY - IC50): 5.27
CC1(C)CC(=O)C=C(Nc2ccc(Oc3ccccc3)cc2)C1	> 10.7	pIC50 (PBLUC_HILL_SLOPE 1.19, PBLUC_R_SQUARED 0.428, read-out: LUCIFERASE INFECTION ASSAY - IC50): 5.66
O=C(N/N=C/c1ccc(F)cc1)c1ccc[n+]([O-])c1	> 10	pIC50 (PBLUC_HILL_SLOPE 1.11, PBLUC_R_SQUARED 0.152, read-out: LUCIFERASE INFECTION ASSAY - IC50): 5.24
CN=C1NN=C(c2cc(C)n(-c3ccc(OC)cc3)c2C)CS1	> 10	pIC50 (PBLUC_HILL_SLOPE 1.15, PBLUC_R_SQUARED 0.417, read-out: LUCIFERASE INFECTION ASSAY - IC50): < 5.00
CCCc1cc(NCc2cccnc2)n2nc(C)c(-c3ccccc3)c2n1	> 9.23	pIC50 (PBLUC_HILL_SLOPE 1.13, PBLUC_R_SQUARED 0.661, read-out: LUCIFERASE INFECTION ASSAY - IC50): 5.50
COc1ccc(C2CC(=O)c3c(n[nH]c3C)C2)cc1 (stereo not given)	> 12.9	pIC50 (PBLUC_HILL_SLOPE 1.11, PBLUC_R_SQUARED 0.36, read-out: LUCIFERASE INFECTION ASSAY - IC50): 5.35
Nc1c(C(=O)Nc2cccc(F)c2)sc2nc3c(cc12)N1CCC3CC1	> 8.96	pIC50 (PBLUC_HILL_SLOPE 1.17, PBLUC_R_SQUARED 0.5, read-out: LUCIFERASE INFECTION ASSAY - IC50): 5.70
CCOC(=O)c1c(NC(=O)CNc2ccccc2CN(C)C2CCCCC2)sc(CC)c1C	> 10	pIC50 (PBLUC_HILL_SLOPE 1.16, PBLUC_R_SQUARED 0.382, read-out: LUCIFERASE INFECTION ASSAY - IC50): 5.51
Cc1ccc(Sc2ccc(/C=C/c3cc(C(=O)O)c4ccccc4n3)cc2[N+](=O)[O-])cc1	> 10	pIC50 (PBLUC_HILL_SLOPE 1.12, PBLUC_R_SQUARED 0.368, read-out: LUCIFERASE INFECTION ASSAY - IC50): 5.05
Clc1ccccc1/C=N/Nc1nc(-c2cc(-c3ccccc3)no2)cs1	> 8.66	pIC50 (PBLUC_HILL_SLOPE 1.1, PBLUC_R_SQUARED 0.687, read-out: LUCIFERASE INFECTION ASSAY - IC50): 5.19
COc1ccc(-c2nn(-c3ccccc3)cc2/C=C/C(=O)NCCc2cn3ccccc3n2)cc1OC	> 10	pIC50 (PBLUC_HILL_SLOPE 1.11, PBLUC_R_SQUARED 0.206, read-out: LUCIFERASE INFECTION ASSAY - IC50): < 5.00
CCc1c2c(nc3sc(C(=O)Nc4nsc(-c5ccccc5)n4)c(N)c13)CC(C)(C)CC2=O	> 10	pIC50 (PBLUC_HILL_SLOPE 1.15, PBLUC_R_SQUARED 0.361, read-out: LUCIFERASE INFECTION ASSAY - IC50): 5.20
O=C(NCCNc1ccc2ccccc2c1)c1cc2ccccc2nc1Cl	> 10	pIC50 (PBLUC_HILL_SLOPE 1.17, 2.29, PBLUC_R_SQUARED 0.341, 0.725, read-out: LUCIFERASE INFECTION ASSAY - IC50): 5.23
Cc1ccc(CNC(=O)c2ccc(/C=C3\SC(=O)NC3=O)cc2)cc1	> 10	pIC50 (PBLUC_HILL_SLOPE 1.15, PBLUC_R_SQUARED 0.802, read-out: LUCIFERASE INFECTION ASSAY - IC50): 5.60
O=C(NC1CC1)c1ccc(-c2cnc3cnc(-c4cccs4)cn23)cc1	> 9.16	pIC50 (PBLUC_HILL_SLOPE 1.19, PBLUC_R_SQUARED 0.184, read-out: LUCIFERASE INFECTION ASSAY - IC50): < 5.04
N=C1c2ccccc2CN1NC(=O)CCCOc1ccc(Cl)cc1Cl	7.29	pIC50 (PBLUC_HILL_SLOPE 1.16, PBLUC_R_SQUARED 0.64, read-out: LUCIFERASE INFECTION ASSAY - IC50): 5.96

Structure (SMILES)	IC90 [µM]	further results
Fc1ccc(-c2nc3ccccc3n2-c2cc(-c3ccccc3)n[nH]2)cc1	5.27	pIC50 (PBLUC_HILL_SLOPE 1.15, 2.25, PBLUC_R_SQUARED 0.601, 0.956, read-out: LUCIFERASE INFECTION ASSAY - IC50): 5.80
O=C(Nc1nc2cc3c(cc2s1)OCCO3)c1cccc2c[nH]nc12	0.404	pIC50 (PBLUC_HILL_SLOPE 1.1, PBLUC_R_SQUARED 0.666, read-out: LUCIFERASE INFECTION ASSAY - IC50): 7.26
Cc1ccc(-n2c(-c3ccc(F)cc3)nc3c2C(=O)c2ccccc2C3=O)cc1	> 10	pIC50 (PBLUC_HILL_SLOPE 1.1, PBLUC_R_SQUARED 0.595, read-out: LUCIFERASE INFECTION ASSAY - IC50): 5.73
CCC(NC(=O)NCc1ccccc1S(=O)(=O)N1CCCCC1)c1ccc(Cl)cc1 (stereo not given)	> 10	pIC50 (PBLUC_HILL_SLOPE 1.14, PBLUC_R_SQUARED 0.117, read-out: LUCIFERASE INFECTION ASSAY - IC50): < 5.00
CCCn1c(NC(=O)Cc2csc(NC(=O)c3ccco3)n2)nc2ccccc21	> 10	pIC50 (PBLUC_HILL_SLOPE 1.19, PBLUC_R_SQUARED 0.0275, read-out: LUCIFERASE INFECTION ASSAY - IC50): < 5.00
CCNC(=S)N/N=C/c1cc(Cl)cc(Cl)c1O	> 11.3	pIC50 (PBLUC_HILL_SLOPE 1.17, PBLUC_R_SQUARED 0.411, read-out: LUCIFERASE INFECTION ASSAY - IC50): < 4.95
OC1CCN(c2ccnc3c(-c4ccc5ccccc5c4)cnn23)CC1	0.96	pIC50 (PBLUC_HILL_SLOPE 1.1, PBLUC_R_SQUARED 0.73, read-out: LUCIFERASE INFECTION ASSAY - IC50): 6.89
OC[C@H]1O[C@@H](c2nc(-c3nc(-c4ccc5[nH]ccc5c4)no3)cs2)[C@H](O)[C@@H]1O	1.55	pIC50 (PBLUC_HILL_SLOPE 1.16, PBLUC_R_SQUARED 0.583, read-out: LUCIFERASE INFECTION ASSAY - IC50): 6.63
CN1CCCN(C(=O)CCNC(=O)/C=C/c2ccco2)c2nc3ccccc3nc21	> 10	pIC50 (PBLUC_HILL_SLOPE 1.1, PBLUC_R_SQUARED 0.699, read-out: LUCIFERASE INFECTION ASSAY - IC50): 5.75
Cc1cc(C)c(NC(=O)CNc2nn3cc(-c4ccccc4)nc3s2)c(C)c1	> 10	pIC50 (PBLUC_HILL_SLOPE 1.1, PBLUC_R_SQUARED 0.432, read-out: LUCIFERASE INFECTION ASSAY - IC50): 5.81
COCCOc1ccc(C(F)(F)F)cc1NC(=O)c1ccc2ncsc2c1	> 10	pIC50 (PBLUC_HILL_SLOPE 1.17, PBLUC_R_SQUARED 0.0937, read-out: LUCIFERASE INFECTION ASSAY - IC50): 5.07
CNc1cc(C(C)C)nc2c(-c3ccccc3)cnn12	> 12.4	pIC50 (PBLUC_HILL_SLOPE 1.1, PBLUC_R_SQUARED 0.428, read-out: LUCIFERASE INFECTION ASSAY - IC50): 5.02
COCCNC(=O)C1CCN(C(C(=O)c2c[nH]c3ccccc23)c2ccccc2)CC1 (stereo not given)	4.42	pIC50 (PBLUC_HILL_SLOPE 1.13, PBLUC_R_SQUARED 0.77, read-out: LUCIFERASE INFECTION ASSAY - IC50): 6.20
N#Cc1cc(NS(=O)(=O)c2c[nH]c(C(=O)N3CCCC3)c2)ccc1Cl	> 10	pIC50 (PBLUC_HILL_SLOPE 1.14, PBLUC_R_SQUARED 0.85, read-out: LUCIFERASE INFECTION ASSAY - IC50): 5.27
Cc1nn(-c2ccccc2Cl)c2sc(C(=O)Nc3ccc(N4CCN(C)CC4)nc3)cc12	> 10	pIC50 (PBLUC_HILL_SLOPE 1.19, PBLUC_R_SQUARED 0.233, read-out: LUCIFERASE INFECTION ASSAY - IC50): 5.24
Cc1cc(/C=N/Nc2ccccc2[N+](=O)[O-])c(C)n1CC(C)C	8.36	pIC50 (PBLUC_HILL_SLOPE 1.12, PBLUC_R_SQUARED 0.805, read-out: LUCIFERASE INFECTION ASSAY - IC50): 5.93
Cn1c(NCc2ccccc2)nc2cnc(Nc3cccc(C(F)(F)F)c3)cc21	> 10	pIC50 (PBLUC_HILL_SLOPE 1.17, PBLUC_R_SQUARED 0.452, read-out: LUCIFERASE INFECTION ASSAY - IC50): 5.39
O=S(=O)(Nc1cccc(C(F)(F)F)c1)c1c(F)c(Br)cc(F)c1Br	> 6.67	pIC50 (PBLUC_HILL_SLOPE 1.15, PBLUC_R_SQUARED 0.311, read-out: LUCIFERASE INFECTION ASSAY - IC50): < 5.18
O=C(Nc1nc2ccccc2[nH]1)c1cc2ccccc2cc1O	> 10	pIC50 (PBLUC_HILL_SLOPE 1.13, 0.699, PBLUC_R_SQUARED 0.533, 0.940, read-out: LUCIFERASE INFECTION ASSAY - IC50): 5.71
Cc1c(C(=O)Nc2nc3c(s2)CCCCC3)[nH]c2c1C(=O)CC(C)(C)C2	> 10	pIC50 (PBLUC_HILL_SLOPE 1.1, PBLUC_R_SQUARED 0.304, read-out: LUCIFERASE INFECTION ASSAY - IC50): 5.66
